This note sets out measurements from patent US20230167073A1 (Teijin Pharma Limited, priority 2020, published 2023).

This test has as its target T1, Human TRPC6 (Homo sapiens, UniProt Q9Y210).
T1 construct: expressed in transfected cells
T1 sequence (Q9Y210 1-931): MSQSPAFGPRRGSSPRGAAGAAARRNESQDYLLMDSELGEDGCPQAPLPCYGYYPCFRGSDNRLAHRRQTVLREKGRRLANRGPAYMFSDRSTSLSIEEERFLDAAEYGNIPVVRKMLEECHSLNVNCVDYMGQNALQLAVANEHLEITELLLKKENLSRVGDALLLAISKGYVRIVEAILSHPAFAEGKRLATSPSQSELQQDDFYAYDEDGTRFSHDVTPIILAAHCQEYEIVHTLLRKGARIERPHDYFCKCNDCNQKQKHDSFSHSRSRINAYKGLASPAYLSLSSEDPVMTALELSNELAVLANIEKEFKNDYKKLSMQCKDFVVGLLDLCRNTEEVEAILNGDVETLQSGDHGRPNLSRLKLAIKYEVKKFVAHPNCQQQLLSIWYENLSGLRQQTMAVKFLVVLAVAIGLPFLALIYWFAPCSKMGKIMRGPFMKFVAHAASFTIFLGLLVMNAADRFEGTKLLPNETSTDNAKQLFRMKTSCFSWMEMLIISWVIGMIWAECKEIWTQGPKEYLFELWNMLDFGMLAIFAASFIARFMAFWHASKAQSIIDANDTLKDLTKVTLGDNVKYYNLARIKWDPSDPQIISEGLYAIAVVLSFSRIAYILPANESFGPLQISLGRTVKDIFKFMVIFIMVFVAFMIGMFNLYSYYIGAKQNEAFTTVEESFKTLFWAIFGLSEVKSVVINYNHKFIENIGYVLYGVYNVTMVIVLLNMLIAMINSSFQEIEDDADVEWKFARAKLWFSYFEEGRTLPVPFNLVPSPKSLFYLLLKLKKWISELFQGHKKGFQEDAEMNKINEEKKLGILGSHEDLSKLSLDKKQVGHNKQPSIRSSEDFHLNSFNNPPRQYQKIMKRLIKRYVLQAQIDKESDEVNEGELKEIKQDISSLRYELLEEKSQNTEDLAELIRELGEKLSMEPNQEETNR
Briefly: Evaluation of TRPC6 channel inhibitory activity (1), FLIPR Calcium 5 Assay Kit, OAG stimulation (Compound Nos. 1-1293). Format: cell-based. The conditions noted are these: Human TRPC6 stably-expressing cells, OAG 30 μM, FLIPR Calcium 5 Assay Kit; read-out: Inhibitory activity (pIC50 class) (converted). The procedure, abridged:
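Calcium influx read by FLIPR fluorescence in cells stably expressing human TRPC6, dye-loaded 30 min. Compounds preincubated 20 min, then OAG stimulation at 30 μM final. Inhibition fitted by four-parameter logistic regression to give pIC50, reported as +/++/+++ categories.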
As for `Cc1nc(Oc2cc(C#N)ccc2-c2ncc(CCN)cn2)cc(-c2ccccn2)n1` [compound 599, 4-[5-(2-aminoethyl)pyrimidin-2-yl]-3-(2-methyl-6-pyridin-2-ylpyrimidin-4-yl)oxybenzonitrile], the IC50 is less than 10 nM.
The same measure for `CN(CC(F)F)c1cc(Oc2cc(F)ccc2-c2ccc(CCN)cn2)n(C)n1` [compound 988, 5-[2-[5-(2-aminoethyl)pyridin-2-yl]-5-fluorophenoxy]-N-(2,2-difluoroethyl)-N,1-dimethylpyrazole-3-amine]: less than 10 nM.
The same measure for `Cc1ccc(-c2cc(Oc3cc(C#N)ccc3-c3ccc(CCN)cc3)n(C)n2)nc1` [Compound 164, 4-[4-(2-aminoethyl)phenyl]-3-[2-methyl-5-(5-methylpyridin-2-yl)pyrazol-3-yl]oxybenzonitrile]: less than 10 nM.
The same measure for `N#Cc1ccc(-c2ncc(CN)cn2)c(Cn2cc(C3CCCCC3)nn2)c1` [compound 1190, 4-[5-(aminomethyl)pyrimidin-2-yl]-3-[(4-cyclohexyltriazol-1-yl)methyl]benzonitrile]: 10 to 1000 nM; for `Cn1nc(C(C)(C)C)cc1Oc1cc(C#N)ccc1-c1ncc(CCN)cn1` [compound 367, 4-[5-(2-aminoethyl)pyrimidin-2-yl]-3-(5-tert-butyl-2-methylpyrazol-3-yl)oxybenzonitrile]: less than 10 nM; for `Cc1cc(Oc2cc(C#N)ccc2-c2ccc(CN)cn2)cc(N2CCOCC2)n1` [compound 329, 4-[5-(aminomethyl)pyridin-2-yl]-3-(2-methyl-6-morpholin-4-ylpyridin-4-yl)oxybenzonitrile]: less than 10 nM.
In the case of `COCCN(C)c1cc(Oc2cc(C#N)ccc2-c2ncc(CCN)cn2)n(C)n1` [compound 760, 4-[5-(2-aminoethyl)pyrimidin-2-yl]-3-[5-[2-methoxyethyl(methyl)amino]-2-methylpyrazol-3-yl]oxybenzonitrile], the IC50 is less than 10 nM.
The same measure for `Cc1nc(Oc2cc(C#N)ccc2-n2cc(C(O)CN)cn2)cc(N2CCOCC2)n1` (stereo not drawn) [Compound 136, 4-[4-(2-amino-1-hydroxyethyl)pyrazol-1-yl]-3-(2-methyl-6-morpholin-4-ylpyrimidin-4-yl)oxybenzonitrile]: 10 to 1000 nM; for `CN(CC(F)F)c1cc(Oc2cc(F)ccc2-c2ncc(CN)cn2)n(C)n1` [compound 993, 5-[2-[5-(aminomethyl)pyrimidin-2-yl]-5-fluorophenoxy]-N-(2,2-difluoroethyl)-N,1-dimethylpyrazole-3-amine]: 10 to 1000 nM.
The same measure for `Cn1nc(N2CCCCC2)cc1Oc1cc(C#N)ccc1-c1ncc(CCN)cn1` [compound 627, 4-[5-(2-aminoethyl)pyrimidin-2-yl]-3-(2-methyl-5-piperidin-1-ylpyrazol-3-yl)oxybenzonitrile]: less than 10 nM; for `N#Cc1ccc(-c2ccc(CCN)cc2)c(Oc2cnnc(OC3CCOC3)c2)c1` (stereo not drawn) [Compound 125, 4-[4-(2-aminoethyl)phenyl]-3-[6-(oxolan-3-yloxy)pyridazin-4-yl]oxybenzonitrile]: 10 to 1000 nM.
The same measure for `Cn1nc(C2CC2)cc1Oc1cc(C#N)ccc1-c1ccc(C(N)c2nnn[nH]2)cn1` (stereo not drawn) [compound 511, 4-[5-[amino(1H-tetrazol-5-yl)methyl]pyridin-2-yl]-3-(5-cyclopropyl-2-methylpyrazol-3-yl)oxybenzonitrile]: greater than 1000 nM; for `Cn1nc(-c2ccccn2)cc1Oc1cc(C#N)ccc1-c1cccn2c(CN)nnc12` [compound 617, 4-[3-(aminomethyl)-[1,2,4]triazolo[4,3-a]pyridin-8-yl]-3-(2-methyl-5-pyridin-2-ylpyrazol-3-yl)oxybenzonitrile]: 10 to 1000 nM.
Turning to `Cn1nc(N2CCCCC2)cc1Oc1cc(C#N)ccc1-c1ccc(CCN)cn1` [compound 541, 4-[5-(2-aminoethyl)pyridin-2-yl]-3-(2-methyl-5-piperidin-1-ylpyrazol-3-yl)oxybenzonitrile], the IC50 is less than 10 nM.
Turning to `N#Cc1ccc(-c2ccc(CN)cn2)c(C(=O)c2sc(N3CCOCC3)nc2C(F)(F)F)c1` [compound 1080, 4-[5-(aminomethyl)pyridin-2-yl]-3-[2-morpholin-4-yl-4-(trifluoromethyl)-1,3-thiazole-5-carbonyl]benzonitrile], the IC50 is less than 10 nM.
The same measure for `N#Cc1ccc(-c2ccc(CCN)cn2)c(Oc2nnc(C3CC3)s2)c1` [compound 718, 4-[5-(2-aminoethyl)pyridin-2-yl]-3-[(5-cyclopropyl-1,3,4-thiadiazol-2-yl)oxy]benzonitrile]: less than 10 nM; for `CCN(C)c1cc(Oc2cc(C#N)ccc2-c2ncc(CCN)cn2)nc(C)n1` [compound 854, 4-[5-(2-aminoethyl)pyrimidin-2-yl]-3-[6-[ethyl(methyl)amino]-2-methylpyrimidin-4-yl]oxybenzonitrile]: less than 10 nM.
Turning to `N#Cc1ccc(-c2ccc(CCN)nc2)c(Oc2cnnc(N3CCCCC3)c2)c1` [Compound 78, 4-[6-(2-aminoethyl)pyridin-3-yl]-3-(6-piperidin-1-ylpyridazin-4-yl)oxybenzonitrile], the IC50 is 10 to 1000 nM.
For `Cn1nc(-c2ccccc2)cc1Oc1cc(C#N)ccc1-c1ccc([C@@H](O)CN)cn1` [compound 365, 4-[5-[(1R)-2-amino-1-hydroxyethyl]pyridin-2-yl]-3-(2-methyl-5-phenylpyrazol-3-yl)oxybenzonitrile], the IC50 was less than 10 nM.
The same measure for `Cn1nc(N2CCCC2)cc1Oc1cc(C#N)ccc1-c1ccc(CCN)cn1` [compound 542, 4-[5-(2-aminoethyl)pyridin-2-yl]-3-(2-methyl-5-pyrrolidin-1-ylpyrazol-3-yl)oxybenzonitrile]: less than 10 nM.
The same measure for `Cc1nc(Oc2cc(C#N)ccc2-c2cccc(CCN)c2)cc(N2CCOCC2)n1` [Compound 194, 4-[3-(2-aminoethyl)phenyl]-3-(2-methyl-6-morpholin-4-ylpyrimidin-4-yl)oxybenzonitrile]: greater than 1000 nM; for `Cn1nc(C2CC2)cc1Oc1cc(C#N)ccc1-c1cc(C(=O)N2CCC(N)CC2)ccn1` [compound 553, 4-[4-(4-aminopiperidine-1-carbonyl)pyridin-2-yl]-3-(5-cyclopropyl-2-methylpyrazol-3-yl)oxybenzonitrile]: greater than 1000 nM; for `Cc1cccc(-c2cc(Oc3cc(C#N)ccc3-c3ncc(CN)cn3)n(C)n2)n1` [compound 650, 4-[5-(aminomethyl)pyrimidin-2-yl]-3-[2-methyl-5-(6-methylpyridin-2-yl)pyrazol-3-yl]oxybenzonitrile]: 10 to 1000 nM.
The same measure for `Cc1nc(Oc2cc(C#N)ccc2-n2cc([C@@H](O)CN)cn2)cc(N2CCCC2)n1` [Compound 232, 4-[4-[(1R)-2-amino-1-hydroxyethyl]pyrazol-1-yl]-3-(2-methyl-6-pyrrolidin-1-ylpyrimidin-4-yl)oxybenzonitrile]: less than 10 nM.
With `Cc1nnc(-c2cc(Oc3cc(C#N)ccc3-c3ncc(CN)cn3)n(C)n2)s1` [compound 961, 4-[5-(aminomethyl)pyrimidin-2-yl]-3-[2-methyl-5-(5-methyl-1,3,4-thiadiazol-2-yl)pyrazol-3-yl]oxybenzonitrile], the IC50 is greater than 1000 nM.
With `Cc1nn(-c2ccccn2)cc1Oc1cc(F)ccc1-c1ncc(CCN)cn1` [compound 969, 2-[2-[4-fluoro-2-(3-methyl-1-pyridin-2-ylpyrazol-4-yl)oxyphenyl]pyrimidin-5-yl]ethanamine], the IC50 is less than 10 nM.
The same measure for `Cc1ccc(-c2cc(Oc3cc(C#N)ccc3-n3cc(C(O)CN)cn3)nc(C)n2)cc1` (stereo not drawn) [Compound 142, 4-[4-(2-amino-1-hydroxyethyl)pyrazol-1-yl]-3-[2-methyl-6-(4-methylphenyl)pyrimidin-4-yl]oxybenzonitrile]: 10 to 1000 nM.
The same measure for `Cc1nc(Oc2cc(C#N)ccc2-c2ncc(CCN)cn2)cc(N2CC(F)(F)C2)n1` [compound 296, 4-[5-(2-aminoethyl)pyrimidin-2-yl]-3-[6-(3,3-difluoroazetidin-1-yl)-2-methylpyrimidin-4-yl]oxybenzonitrile]: less than 10 nM; for `N#Cc1ccc(-c2ccc(CCN)cn2)c(Oc2nnc(N3CCOCC3)s2)c1` [compound 717, 4-[5-(2-aminoethyl)pyridin-2-yl]-3-[(5-morpholin-4-yl-1,3,4-thiadiazol-2-yl)oxy]benzonitrile]: 10 to 1000 nM.
As for `Cc1nc(Oc2cc(C#N)ccc2-c2cnc(N)nc2)cc(N2CCOCC2)n1` [Compound 14, 4-(2-aminopyrimidin-5-yl)-3-(2-methyl-6-morpholin-4-ylpyrimidin-4-yl)oxybenzonitrile], the IC50 was greater than 1000 nM.
